Measurements from publication PMC4394464, “Identification and Pharmacokinetics of Multiple Potential Bioactive Constituents after Oral Administration of Radix Astragali on Cyclophosphamide-Induced Immunosuppression in Balb/c Mice” (International Journal of Molecular Sciences, 2015).
Like-named read-outs stand apart in the source and are kept apart here.

Key:
[1] = Pharmacokinetics of five main constituents in immunosuppressive mice plasma after oral administration of RA (HPLC-MS/MS); format: in vivo, Balb/c mice
Description: The maximum plasma concentration (Cmax) and the time of maximum plasma concentration (tmax) were obtained from the observed data (Table 3). The plasma concentration-time profiles for calycosin-7-O-glucoside, ononin, calycosin, formononetin and astragaloside IV are shown in Figure 4.
To quantify calycosin-7-O-glucoside, ononin, calycosin, formononetin and astragaloside IV in mice, a 10-μL IS solution was added into 50 μL of plasma and mixed for 30 s. Then, 1 mL ethyl acetate was added to the tube and vortexed for 3 min. […] Ten microliters of the supernatant were injected into the HPLC-MS/MS system.
The quantification was performed by an LC-MS/MS system, which consisted of an Agilent 1200 HPLC series system and an Agilent 6410 triple quadrupole mass spectrometer (Agilent Technol., Santa Clara, CA, USA) equipped with an electrospray ionization source. Samples were separated by a rapid resolution HT C18 column (2.1 mm × 50 mm, 1.8 μm, Agilent Technol.) at 30 °C. The mobile phase consisted of 0.1 formic acid both in methanol (A) and water (B) using a gradient elution program of 25%–50% A (0–5 min) and 50%–90% (5–10 min). The flow rate was 0.2 mL/min, and the injection volume was 10 μL. Detection was performed in the positive ion mode using multiple reaction monitoring (MRM) of the m/z 447.1/285.0 for calycosin-7-O-glucoside, m/z 431.1/269.0 for ononin, m/z 285.0/137.0 for calycosin, m/z 269.0/213.0 for formononetin, m/z 807.4/627.3 for astragaloside IV and m/z 271.1/151.0 for naringenin.

[2] = Profiling of absorbed constituents and metabolites in mice plasma after oral administration of RA (UFLC-DAD-Q-TOF-MS/MS); conditions: oral RA extract 6 g/kg BW; cyclophosphamide-induced immunosuppressed Balb/c mice; plasma sampled 0.25-36 h; '-' = not detected
Description: The peaks that appeared at the same position in the total ion chromatograms of both the dosed mice bio-samples and the RA extract, but not in the chromatograms of the controlled mice bio-samples, were regarded as absorbed constituents [22].
Following randomization into study groups, mice (6/group/male) received intraperitoneal injection once daily of cyclophosphamide (i.p. 80 mg/kg BW) for 6 days. Additionally, the control group was injected intraperitoneally with sterile physiological saline. […] Plasma was harvested by centrifugation at 3000× g for 10 min and then kept frozen at −70 °C until analysis.
After being vortexed for 1 min, the sample was centrifuged at 13,000× g at 4 °C for 30 min. The supernate was transferred into a fresh tube and evaporated with nitrogen. Then, the residue was dissolved in a 60-μL mobile phase with vortex mixing for 3 min and centrifuged at 13,000× g for 30 min. Finally, 10 μL of the supernatant were injected into the UFLC/DAD/Q-TOF-MS/MS system.
The multiple constituents in RA and the absorbed compounds in mice plasma were identified by the ultra-fast liquid chromatography/diode-array detector/quadrupole time-of-flight tandem mass spectrometry (UFLC/DAD/Q-TOF-MS/MS) method.

[3] = male, mouse, oral RA extract 6 g/kg BW, immunosuppressive Balb/c mice plasma, 0-36 h, read-out: AUC(0–t)
[4] = male, mouse, oral RA extract 6 g/kg BW, immunosuppressive Balb/c mice plasma, read-out: AUC(0–∞)
[5] = male, mouse, oral RA extract 6 g/kg BW, immunosuppressive Balb/c mice plasma, read-out: Cmax
[6] = male, mouse, oral RA extract 6 g/kg BW, immunosuppressive Balb/c mice plasma, read-out: t1/2z (converted)
[7] = male, mouse, oral RA extract 6 g/kg BW, immunosuppressive Balb/c mice plasma, read-out: tmax
[8] = after oral administration of RA, immunosuppressive Balb/c mice plasma
[9] = male, Balb/c, mouse, in vivo, po, 6 g/kg

Work on `COc1ccc(-c2coc3cc(O[C@@H]4O[C@H](CO)[C@@H](O)[C@H](O)[C@H]4O)ccc3c2=O)cc1O` (single isomer, unassigned) [Peak 29, Calycosin-7-O-glucoside] yielded an AUC(0-t) [1, 3] of 108 ± 37.1 ng·h/mL, an AUC(0-inf) [1, 4] of 127 ± 40.3 ng·h/mL and a Cmax [1, 5] of 33.4 ng/mL. For the same compound, the half-life [1, 6] was 2.61 ± 0.67 h, the Tmax [1, 7] was 1.5 h and the “Source: Dosed Plasma (time points at which the compound was detected)” value (from here on “Source: Dosed Plasma”) [2] was 0.25 to 24 h.
In the case of `COc1ccc(-c2coc3cc(O[C@@H]4O[C@H](CO)[C@@H](O)[C@H](O)[C@H]4O)ccc3c2=O)cc1` (single isomer, unassigned) [Peak 33, Ononin], the “double-peak phenomenon, time of second peak” value (“double-peak phenomenon, time” for short) [1, 8] is reported as 4 h, the AUC(0-t) [1, 3] is reported as 228 ± 59.7 ng·h/mL and the AUC(0-inf) [1, 4] is reported as 239 ± 47.4 ng·h/mL. For the same compound, the Cmax [1, 5] was 51.4 ng/mL, the half-life [1, 6] was 1.96 ± 0.34 h and the Tmax [1, 7] was 1.5 h. The “Source: Dosed Plasma” value [2] was 0.25 to 24 h.
Compound `CC(C)(O)[C@@H]1CC[C@](C)(C2[C@@H](O)C[C@@]3(C)[C@@H]4C[C@H](O[C@@H]5O[C@H](CO)[C@@H](O)[C@H](O)[C@H]5O)C5C(C)(C)[C@@H](O[C@@H]6OC[C@@H](O)[C@H](O)[C@H]6O)CC[C@@]56C[C@@]46CC[C@]23C)O1` (single isomer, unassigned) [Peak 45, Astragaloside IV] has an AUC(0-t) ([1]; male, mouse, in vivo, 6 g/kg BW, oral RA, immunosuppressive Balb/c mice plasma, read-out: AUC0–t) of 695 ± 179 ng·h/mL, a Cmax ([1]; male, mouse, in vivo, 6 g/kg BW, oral RA, immunosuppressive Balb/c mice plasma, read-out: Cmax) of 129 ng/mL and an AUC(0-t) ([1]; male, mouse, in vivo, oral RA extract 6 g/kg BW, immunosuppressive Balb/c mice plasma, 0-36 h, read-out: AUC(0–t)) of 695 ± 179 ng·h/mL. It also gave an AUC(0-inf) ([1]; male, mouse, in vivo, oral RA extract 6 g/kg BW, immunosuppressive Balb/c mice plasma, read-out: AUC(0–∞)) of 722 ± 197 ng·h/mL, a Cmax ([1]; male, mouse, in vivo, oral RA extract 6 g/kg BW, immunosuppressive Balb/c mice plasma, read-out: Cmax) of 129 ng/mL and a half-life ([1]; male, mouse, in vivo, oral RA extract 6 g/kg BW, immunosuppressive Balb/c mice plasma, read-out: t1/2z (converted)) of 3.48 ± 1.15 h. The Tmax ([1]; male, mouse, in vivo, oral RA extract 6 g/kg BW, immunosuppressive Balb/c mice plasma, read-out: tmax) was 1.5 h and the “Source: Dosed Plasma” value [2] was 0.25 to 24 h.
In the case of `CC(C)(O[C@@H]1O[C@H](CO)[C@@H](O)[C@H](O)[C@H]1O)[C@@H]1CC[C@](C)([C@H]2[C@@H](O)C[C@@]3(C)[C@@H]4C[C@H](O)[C@H]5C(C)(C)[C@@H](O[C@@H]6OC[C@@H](O)[C@H](O)[C@H]6O[C@@H]6O[C@H](CO)[C@@H](O)[C@H](O)[C@H]6O)CC[C@@]56C[C@@]46CC[C@]23C)O1` (single isomer, unassigned; peak 40) [Peak 40, Astragaloside V], the “Source: Dosed Plasma” value [2] is reported as 0.25 to 24 h.
For `CC(C)(O)[C@@H]1CC[C@](C)([C@H]2[C@@H](O)C[C@@]3(C)[C@@H]4C[C@H](O[C@@H]5O[C@H](CO)[C@@H](O)[C@H](O)[C@H]5O)[C@H]5C(C)(C)[C@@H](O[C@@H]6OC[C@@H](O)[C@H](O)[C@H]6O[C@@H]6O[C@H](CO)[C@@H](O)[C@H](O)[C@H]6O)CC[C@@]56C[C@@]46CC[C@]23C)O1` (single isomer, unassigned; peak 41) [Peak 41, Astragaloside VI], the “Source: Dosed Plasma” value [2] was 0.25 to 24 h.
With `C[C@@H]1O[C@@H](O[C@H]2[C@H](O[C@H]3[C@H](O[C@H]4CC[C@@]5(C)[C@@H](CC[C@]6(C)[C@@H]5CC=C5[C@@H]7CC(C)(C)C[C@@H](O)[C@]7(C)CC[C@]56C)[C@@]4(C)CO)O[C@H](C(=O)O)[C@@H](O)[C@@H]3O)OC[C@@H](O)[C@@H]2O)[C@H](O)[C@H](O)[C@H]1O` (single isomer, unassigned; peak 48) [Peak 48, Astragaloside VIII] the “Source: Dosed Plasma” value [2] was 0.25 to 24 h.
For `C[N+](C)(C)CCO` [Peak 4, Choline], the “Source: Dosed Plasma” value [2] was 0.25 to 36 h.
In the case of `NCCCC(=O)O` [Peak 5, γ-Aminobutyric acid], the “Source: Dosed Plasma” value [2] is reported as 0.25 to 36 h.
For `O=C(O)c1ccc(O)c(O)c1` [Peak 12, Protocatechuic acid], the “Source: Dosed Plasma” value [2] was 0.25 to 36 h.
In the case of `COc1cc(C(=O)O)cc(OC)c1O` [Peak 20, Syringic acid], the “Source: Dosed Plasma” value [2] is reported as 0.25 to 36 h.
With `COc1cc(C=O)cc(OC)c1O` [Peak 23, Syringaldehyde] the “Source: Dosed Plasma” value [2] was 0.25 to 6 h.
With `COc1cc(/C=C/C(=O)O)ccc1O` [Peak 25, Ferulic acid] the “Source: Dosed Plasma” value [2] was 0.25 to 36 h.
With `COc1ccc(/C=C/C(=O)O)cc1O` [Peak 27, Isoferulic acid] the “Source: Dosed Plasma” value [2] was 0.25 to 36 h.
In the case of `O=C(O)CCCCCCCC(=O)O` [Peak 32, Azelaic acid], the “Source: Dosed Plasma” value [2] is reported as 0.25 to 36 h.
In the case of `COc1ccc(-c2coc3cc(O)ccc3c2=O)cc1O` [Peak 37, Calycosin], the “double-peak phenomenon, time” value [1, 8] is reported as 6 h, the AUC(0-t) [1, 3] is reported as 136 ± 41.4 ng·h/mL and the AUC(0-inf) [1, 4] is reported as 155 ± 37.7 ng·h/mL. The Cmax [1, 5] was 33 ng/mL, the half-life [1, 6] was 2.21 ± 0.92 h and the Tmax [1, 7] was 1.5 h. For the same compound, the “Source: Dosed Plasma” value [2] was 0.25 to 24 h.
For `COc1ccc(-c2coc3cc(O)ccc3c2=O)cc1` [Peak 39, Formononetin], the “double-peak phenomenon, time” value ([1]; male, Balb/c, mouse, in vivo, po) was 6 h, the AUC(0-inf) [1, 9] was 256 ± 45.7 ng·h/mL and the AUC(0-t) [1, 9] was 233 ± 47.8 ng·h/mL. For the same compound, the Cmax [1, 9] was 47.9 ng/mL, the Tmax [1, 9] was 2 h and the half-life [1, 9] was 3.99 ± 1.03 h. The “Source: Dosed Plasma” value [2] was 0.25 to 24 h.
In the case of `COc1ccc(-c2coc3cc(OC4OC(C(=O)O)C(O)C(O)C4O)ccc3c2=O)cc1` (stereo not drawn) [Peak M3, Glucuronidated formononetin], the “Source: Dosed Plasma” value [2] is reported as 0.25 to 8 h.
For Sulfated calycosin [Peak M1], the “Source: Dosed Plasma” value [2] was 0.25 to 8 h.
With Sulfated formononetin [Peak M6] the “Source: Dosed Plasma” value [2] was 0.25 to 8 h.
For Sulfated isomucronulatol [Peak M5], the “Source: Dosed Plasma” value [2] was 0.25 to 8 h.
